Source: US9556165B2 (priority 2012, dated 2017)
≈ marks a conversion by molar mass, not a printed value.

How the values were obtained:
Test in all cases: MIC determination, broth microdilution (CLSI)
Assay type in all cases: cell-based
[1] = tested on: A. baumannii ATCC15308; conditions: Acinetobacter baumannii, ATCC15308, strain 9
[2] = tested on: P. aeruginosa 2297 (AmpC wt); conditions: Pseudomonas aeruginosa, strain 7
[3] = tested on: P. aeruginosa 2297-con (AmpC derepressed); conditions: Pseudomonas aeruginosa, read-out: strain 8 MIC, strain 8
[4] = tested on: E. coli J62; conditions: Escherichia coli, J62, strain 17; read-out: strain 17 MIC
[5] = tested on: H. influenzae ATCC 49247; conditions: Haemophilus influenzae, ATCC49247, strain 13; read-out: strain 13 MIC
[6] = tested on: E. cloacae 34654; conditions: Enterobacter cloacae, 34654, strain 3
[7] = tested on: S. pneumoniae 113; conditions: Streptococcus pneumoniae, 113, strain 14; read-out: strain 14 MIC
[8] = tested on: M. morganii 126/3048; conditions: Morganella morganii, 126/3048, strain 5
[9] = tested on: K. pneumoniae 60; conditions: Klebsiella pneumoniae, 60, strain 2
[10] = tested on: E. coli ATCC25922; conditions: Escherichia coli, ATCC25922, strain 1
[11] = tested on: strain 20
[12] = tested on: E. coli J62-TEM-3; conditions: Escherichia coli, J62TEM3, read-out: strain 18 MIC, strain 18
[13] = tested on: S. aureus 133; conditions: Staphylococcus aureus, 133, strain 11; read-out: strain 11 MIC
[14] = tested on: M. catarrhalis ICB489; conditions: Moraxella catarrhalis, ICB489, strain 12
[15] = tested on: strain 19
[16] = tested on: strain 21
[17] = tested on: B. fragilis 6688; conditions: Bacteroides fragilis, 6688, strain 15; read-out: strain 15 MIC
[18] = tested on: P. aeruginosa PAO1; conditions: Pseudomonas aeruginosa, PAO1, strain 6
[19] = tested on: C. freundii K21/3034; conditions: Citrobacter freundii, K21/3034, strain 4

For `C[C@H]1[C@H](NC(=O)/C(=N\OCC(C)(C)Oc2ccc(C(=N)N)cc2)c2csc(N)n2)C(=O)N1S(=O)(=O)O` [Example 17, (2S,3S)-3-{[(2Z)-2-(2-Amino-1,3-thiazol-4-yl)-2-{[2-(4-carbamimidoylphenoxy)-2-methyl-propoxy]imino}acetyl]amino}-2-methyl-4-oxoazetidine-1-sulfonic acid], which MIC [1] is on record?
Its MIC is 8 µg/mL (≈ 14.8 µM).

What about the MIC [2] of the same compound?
Its MIC is 16 µg/mL (≈ 29.7 µM).

And the MIC [3]?
The MIC was 32 µg/mL (≈ 59.3 µM).

What about the MIC [4] of the same compound?
The MIC was 2 µg/mL (≈ 3.71 µM).

What about the MIC [5] of the same compound?
Its MIC is 1 µg/mL (≈ 1.85 µM).

And the MIC [6]?
Its MIC is 2 µg/mL (≈ 3.71 µM).

And the MIC [7]?
Its MIC is 2 µg/mL (≈ 3.71 µM).

What about the MIC [8] of the same compound?
The MIC was no more than 0.063 µg/mL.

What about the MIC [9] of the same compound?
The MIC was 2 µg/mL (≈ 3.71 µM).

What about the MIC [10] of the same compound?
The MIC was 2 µg/mL (≈ 3.71 µM).

What about the MIC [11] of the same compound?
The MIC was 2 µg/mL (≈ 3.71 µM).

What about the MIC [12] of the same compound?
The MIC was 32 µg/mL (≈ 59.3 µM).

What about the MIC [13] of the same compound?
Its MIC is 2 µg/mL (≈ 3.71 µM).

What about the MIC [14] of the same compound?
Its MIC is 2 µg/mL (≈ 3.71 µM).

And the MIC [15]?
Its MIC is 1 µg/mL (≈ 1.85 µM).

And the MIC [16]?
The MIC was 2 µg/mL (≈ 3.71 µM).

What about the MIC [17] of the same compound?
Its MIC is 4 µg/mL (≈ 7.41 µM).

What about the MIC [18] of the same compound?
Its MIC is 8 µg/mL (≈ 14.8 µM).

What about the MIC [19] of the same compound?
The MIC was 1 µg/mL (≈ 1.85 µM).

Which MIC [1] does the source give for `C[C@H]1[C@H](NC(=O)/C(=N\OCCOc2ccc(C(=N)N)cc2Cl)c2csc(N)n2)C(=O)N1S(=O)(=O)O` [Example 20, (2S,3S)-3-{[(2Z)-2-(2-Amino-1,3-thiazol-4-yl)-2-{[2-(4-carbamimidoyl-2-chlorophenoxy)ethoxy]imino}acetyl]amino}-2-methyl-4-oxoazetidine-1-sulfonic acid] here?
The MIC was 2 µg/mL (≈ 3.66 µM).

What about the MIC [2] of the same compound?
The MIC was 8 µg/mL (≈ 14.7 µM).

And the MIC [3]?
The MIC was 32 µg/mL (≈ 58.6 µM).

What about the MIC [4] of the same compound?
Its MIC is 2 µg/mL (≈ 3.66 µM).

What about the MIC [5] of the same compound?
Its MIC is 0.5 µg/mL (≈ 0.916 µM).

What about the MIC [6] of the same compound?
Its MIC is 2 µg/mL (≈ 3.66 µM).

What about the MIC [7] of the same compound?
Its MIC is 16 µg/mL (≈ 29.3 µM).

And the MIC [8]?
The MIC was 2 µg/mL (≈ 3.66 µM).

And the MIC [9]?
Its MIC is 2 µg/mL (≈ 3.66 µM).

What about the MIC [10] of the same compound?
Its MIC is 2 µg/mL (≈ 3.66 µM).

And the MIC [11]?
The MIC was 2 µg/mL (≈ 3.66 µM).

And the MIC [12]?
The MIC was 32 µg/mL (≈ 58.6 µM).

What about the MIC [13] of the same compound?
The MIC was 0.125 µg/mL (≈ 0.229 µM).

What about the MIC [14] of the same compound?
Its MIC is 0.5 µg/mL (≈ 0.916 µM).

And the MIC [15]?
Its MIC is 2 µg/mL (≈ 3.66 µM).

And the MIC [16]?
The MIC was 1 µg/mL (≈ 1.83 µM).

And the MIC [17]?
The MIC was 16 µg/mL (≈ 29.3 µM).

And the MIC [18]?
Its MIC is 8 µg/mL (≈ 14.7 µM).

What about the MIC [19] of the same compound?
Its MIC is 1 µg/mL (≈ 1.83 µM).

What does the source list for `C[C@H]1[C@H](NC(=O)/C(=N\OCCOc2ccc(C(=N)NO)cc2)c2csc(N)n2)C(=O)N1S(=O)(=O)O` [Example 21, (2S,3S)-3-{[(2Z)-2-(2-Amino-1,3-thiazol-4-yl)-2-({2-[4-(N-hydroxycarbamimidoyl)phenoxy]ethoxy}imino)acetyl]amino}-2-methyl-4-oxoazetidine-1-sulfonic acid]?
MIC [1]: 8 µg/mL (≈ 15.2 µM); MIC [2]: 16 µg/mL (≈ 30.3 µM); MIC [4]: 2 µg/mL (≈ 3.79 µM); MIC [5]: 1 µg/mL (≈ 1.9 µM); MIC [6]: 1 µg/mL (≈ 1.9 µM); MIC [7]: 32 µg/mL (≈ 60.7 µM); MIC [8]: 0.5 µg/mL (≈ 0.948 µM); MIC [9]: 0.25 µg/mL (≈ 0.474 µM); MIC [10]: 1 µg/mL (≈ 1.9 µM); MIC [11]: 1 µg/mL (≈ 1.9 µM); MIC [12]: 16 µg/mL (≈ 30.3 µM); MIC [13]: 0.5 µg/mL (≈ 0.948 µM); MIC [14]: 0.25 µg/mL (≈ 0.474 µM); MIC [15]: 0.5 µg/mL (≈ 0.948 µM); MIC [16]: 1 µg/mL (≈ 1.9 µM); MIC [17]: 32 µg/mL (≈ 60.7 µM); MIC [18]: 16 µg/mL (≈ 30.3 µM); MIC [19]: 0.25 µg/mL (≈ 0.474 µM)

Which MIC [1] does the source give for `C[C@H]1[C@H](NC(=O)/C(=N\OCCOc2ccc(C(=N)N)nn2)c2csc(N)n2)C(=O)N1S(=O)(=O)O` [Example 28, (2S,3S)-3-{[(2Z)-2-(2-Amino-1,3-thiazol-4-yl)-2-({2-[(6-carbamimidoylpyridazin-3-yl)oxy]ethoxy}imino)acetyl]amino}-2-methyl-4-oxoazetidine-1-sulfonic acid] here?
Its MIC is 0.5 µg/mL (≈ 0.974 µM).

What about the MIC [2] of the same compound?
The MIC was 8 µg/mL (≈ 15.6 µM).

What about the MIC [3] of the same compound?
Its MIC is 32 µg/mL (≈ 62.3 µM).

And the MIC [4]?
The MIC was 0.25 µg/mL (≈ 0.487 µM).

What about the MIC [5] of the same compound?
Its MIC is 0.5 µg/mL (≈ 0.974 µM).

What about the MIC [6] of the same compound?
The MIC was 0.125 µg/mL (≈ 0.243 µM).

What about the MIC [7] of the same compound?
The MIC was 2 µg/mL (≈ 3.89 µM).

And the MIC [8]?
Its MIC is 0.125 µg/mL (≈ 0.243 µM).

What about the MIC [9] of the same compound?
The MIC was 0.125 µg/mL (≈ 0.243 µM).

And the MIC [10]?
The MIC was 0.125 µg/mL (≈ 0.243 µM).

And the MIC [11]?
The MIC was 0.25 µg/mL (≈ 0.487 µM).

What about the MIC [12] of the same compound?
The MIC was 32 µg/mL (≈ 62.3 µM).

What about the MIC [13] of the same compound?
The MIC was 0.125 µg/mL (≈ 0.243 µM).

What about the MIC [14] of the same compound?
Its MIC is 0.25 µg/mL (≈ 0.487 µM).

What about the MIC [15] of the same compound?
Its MIC is 0.25 µg/mL (≈ 0.487 µM).

What about the MIC [16] of the same compound?
The MIC was 0.25 µg/mL (≈ 0.487 µM).

And the MIC [17]?
Its MIC is 8 µg/mL (≈ 15.6 µM).

And the MIC [18]?
Its MIC is 4 µg/mL (≈ 7.79 µM).

And the MIC [19]?
Its MIC is 0.125 µg/mL (≈ 0.243 µM).

Which results are given for `C[C@H]1[C@H](NC(=O)/C(=N\OCc2cc(C(=N)N)cs2)c2csc(N)n2)C(=O)N1S(=O)(=O)O` [Example 32, (2S,3S)-3-{[(2Z)-2-(2-Amino-1,3-thiazol-4-yl)-2-(2-[(4-carbamimidoylthiophen-2-yl)methoxy]imino)acetyl]amino}-2-methyl-4-oxoazetidine-1-sulfonic acid]?
MIC [1]: 2 µg/mL (≈ 4.1 µM); MIC [2]: 32 µg/mL (≈ 65.6 µM); MIC [4]: 2 µg/mL (≈ 4.1 µM); MIC [5]: 0.5 µg/mL (≈ 1.03 µM); MIC [6]: 0.5 µg/mL (≈ 1.03 µM); MIC [7]: 8 µg/mL (≈ 16.4 µM); MIC [8]: 0.5 µg/mL (≈ 1.03 µM); MIC [10]: 1 µg/mL (≈ 2.05 µM); MIC [11]: 2 µg/mL (≈ 4.1 µM); MIC [12]: 32 µg/mL (≈ 65.6 µM); MIC [13]: ≤ 0.063 µg/mL; MIC [14]: 0.75 µg/mL (≈ 1.54 µM); MIC [15]: 1 µg/mL (≈ 2.05 µM); MIC [16]: 1 µg/mL (≈ 2.05 µM); MIC [17]: 3 µg/mL (≈ 6.15 µM); MIC [18]: 16 µg/mL (≈ 32.8 µM); MIC [19]: 0.5 µg/mL (≈ 1.03 µM)
